The source of these data is patent publication US5814654A, “Substituted guanidine derivatives” (Sumitomo Pharmaceuticals Company, Limited, priority 1996, dated 1998).

One may read the IC50 as the concentration at which inhibition is half-maximal. A low value points to greater potency.

The target of the experiment is T1, Na+/H+ exchange transport system (Rattus norvegicus, UniProt P26431).
T1 construct: using the vascular smooth muscle cells isolated from the rat thoracic aorta; endogenous in cells; host or cells: vascular smooth muscle cells isolated from the rat thoracic aorta
T1 sequence (P26431 whole entry): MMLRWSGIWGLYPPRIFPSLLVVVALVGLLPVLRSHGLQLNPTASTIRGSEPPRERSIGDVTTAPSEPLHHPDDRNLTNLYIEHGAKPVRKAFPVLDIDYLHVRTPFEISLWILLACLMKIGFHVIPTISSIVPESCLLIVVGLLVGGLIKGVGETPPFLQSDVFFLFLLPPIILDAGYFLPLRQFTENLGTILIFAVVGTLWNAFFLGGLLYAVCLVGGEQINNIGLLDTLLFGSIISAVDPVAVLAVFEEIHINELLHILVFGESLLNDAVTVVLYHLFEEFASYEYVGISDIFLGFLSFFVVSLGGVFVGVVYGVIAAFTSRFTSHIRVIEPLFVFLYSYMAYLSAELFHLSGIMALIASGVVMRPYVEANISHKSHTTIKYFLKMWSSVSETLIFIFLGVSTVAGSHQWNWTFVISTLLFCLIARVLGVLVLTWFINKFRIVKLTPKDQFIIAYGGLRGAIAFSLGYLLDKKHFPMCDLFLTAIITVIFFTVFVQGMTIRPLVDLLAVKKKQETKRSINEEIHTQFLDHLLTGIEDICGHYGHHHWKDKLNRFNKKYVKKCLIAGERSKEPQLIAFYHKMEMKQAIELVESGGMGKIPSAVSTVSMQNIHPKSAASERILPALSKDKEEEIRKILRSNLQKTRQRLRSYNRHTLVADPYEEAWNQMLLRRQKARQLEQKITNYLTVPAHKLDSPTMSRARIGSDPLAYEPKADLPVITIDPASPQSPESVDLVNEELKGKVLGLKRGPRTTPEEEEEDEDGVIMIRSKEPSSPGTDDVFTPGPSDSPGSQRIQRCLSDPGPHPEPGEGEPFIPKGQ
The experiment can be described thus: Inhibitory effect on the Na+/H+ exchange transport system (in vitro), change in intracellular pH during acid loading. The format is cell-based. Particulars: vascular smooth muscle cells isolated from the rat thoracic aorta. As for the experimental part: Inhibitory effect on the Na+/H+ exchange transport system (in vitro)
The test was carried out according to the method of Yamori et al. (J. Hypertension, 8, 153 (1990)). In detail, inhibitory effect on the Na+/H+ exchange transport system was evaluated by the change in intracellular pH during acid loading, using the vascular smooth muscle cells isolated from the rat thoracic aorta.
Turning to `NC(N)=NC(=O)c1[nH]c2cccc3c2c1CCC3=O` [Example 1, N-(aminoiminomethyl)-1,3,4,5-tetrahydro-5-oxo-benz[cd]indole-2-carboxamidemethanesulfonate], the midpoint of inhibition, the IC50, lay at 4000 nM.

As to `Cn1c(C(=O)N=C(N)N)c2c3c(cccc31)CCC2` [Example 2, N-(aminoiminomethyl)-1,3,4,5-tetrahydro-1-methyl-benz[cd]indole-2-carboxamide methanesulfonate], half-maximal inhibition (IC50) required 150 nM.

Regarding `NC(N)=NC(=O)c1[nH]c2cccc3c2c1CCC3` [Example 3, N-(aminoiminomethyl)-1,3,4,5-tetrahydro-benz[cd]indole-2-carboxamide methanesulfonate], the midpoint of inhibition, the IC50, lay at 700 nM. Compared with the last molecule, the IC50 is about 4.7-fold higher.
